This note sets out measurements from US20090029992A1, “SUBSTITUTED PYRAZOLE COMPOUNDS” (priority 2007, published 2009).

In test [1] the target is T1, N-terminal His6-tagged recombinant human KDR, residues 790-end (Homo sapiens, UniProt P35968).
T1 construct: recombinant human KDR, residues 790-end; His6 (N); purchased Upstate USA Inc, 706 Forest Street, Charlottesville, Va
The test can be described thus: KDR kinase inhibition assay (33P-ATP filter assay). In kind it is biochemical. An outline of the steps: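 Radiometric filter assay: reaction started with Mg acetate (10 mM)/[γ-33P]ATP mix, run 40 min at room temperature in 8 mM MOPS pH 7.0 with 0.2 mM EDTA, MBP substrate (0.33 mg/mL) and recombinant KDR 790-end (5-10 mU). Phosphate incorporation by scintillation counting of P30 filtermats, compared with uninhibited reactions.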

Test [2] concerns the target T2, N-terminal His-tagged human Src (Homo sapiens, UniProt P12931).
T2 construct: His (N); purchased Upstate USA Inc, 706 Forest Street, Charlottesville, Va
The test can be described thus: Src kinase inhibition assay (33P-ATP filter assay). The format is biochemical.

The test system of a further test is HCT116 cells. Description: Whole cell cytotoxicity assay, Sulforhodamine B. In kind it is cell-based. The note with it: Homo sapiens, HCT-116, HCT116, 96 hours incubation, SRB; for GI50: read-out: GI50 HCT116 cell growth; for pIC50: read-out: IC50 values in this assay (HCT116 cell growth). An outline of the steps:
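HCT116 cells (500/well) in DMEM/10% FBS/2 mM glutamine were preincubated 24 h, then exposed to compound for 96 h at 37 °C, 5% CO2, in duplicate. Cells were fixed with TCA and stained with sulforhodamine B (A570). GI50, TGI and LC50 were derived relative to a time-zero plate and an untreated control.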

Setting [3] is: group with IC50 greater than 100 nM.

pIC50: −log10 of the molar value. Some results are limits rather than exact numbers.

T1 sequence (P35968 790-1356 limits assumed): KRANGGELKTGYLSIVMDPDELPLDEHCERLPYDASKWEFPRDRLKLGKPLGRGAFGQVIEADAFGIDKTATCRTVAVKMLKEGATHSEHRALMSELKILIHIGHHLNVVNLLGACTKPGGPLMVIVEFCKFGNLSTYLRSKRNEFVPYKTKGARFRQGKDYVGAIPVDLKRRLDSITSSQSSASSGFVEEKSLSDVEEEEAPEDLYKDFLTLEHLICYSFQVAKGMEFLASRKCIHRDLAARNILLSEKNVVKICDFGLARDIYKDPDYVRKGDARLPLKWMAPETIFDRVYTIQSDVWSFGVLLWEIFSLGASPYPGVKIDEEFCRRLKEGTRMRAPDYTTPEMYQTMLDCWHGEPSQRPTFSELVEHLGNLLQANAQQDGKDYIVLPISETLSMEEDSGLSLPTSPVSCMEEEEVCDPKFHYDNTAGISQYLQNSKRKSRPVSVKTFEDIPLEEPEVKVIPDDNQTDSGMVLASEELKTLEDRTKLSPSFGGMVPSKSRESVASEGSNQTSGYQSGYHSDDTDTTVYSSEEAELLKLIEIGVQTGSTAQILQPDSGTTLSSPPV
T2 sequence (P12931 whole entry): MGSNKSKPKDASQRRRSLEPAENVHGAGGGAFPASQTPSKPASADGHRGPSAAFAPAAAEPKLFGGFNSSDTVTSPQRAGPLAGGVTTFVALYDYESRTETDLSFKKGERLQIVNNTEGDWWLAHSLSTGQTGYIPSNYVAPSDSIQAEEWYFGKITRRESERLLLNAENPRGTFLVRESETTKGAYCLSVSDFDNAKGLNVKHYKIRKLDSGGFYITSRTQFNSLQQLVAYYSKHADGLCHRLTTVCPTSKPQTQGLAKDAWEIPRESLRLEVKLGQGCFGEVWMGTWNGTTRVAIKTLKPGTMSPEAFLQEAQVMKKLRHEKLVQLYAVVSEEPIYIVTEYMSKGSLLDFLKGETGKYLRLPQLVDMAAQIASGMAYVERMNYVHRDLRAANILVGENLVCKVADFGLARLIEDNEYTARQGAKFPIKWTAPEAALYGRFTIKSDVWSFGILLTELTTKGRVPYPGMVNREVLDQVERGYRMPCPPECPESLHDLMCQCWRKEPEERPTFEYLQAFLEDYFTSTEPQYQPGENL

A word on the pIC50: it is the negative decadic logarithm of the IC50, by convention in mol/L. The GI50 is the concentration at which growth is held to half of that of the control. Turning to `Cc1cc(Nc2cc(N3CCN(C)CC3)nc(-c3cc(F)ccc3C)n2)n[nH]1` [Example 196, 2-(5-fluoro-2-methylphenyl)-N-(5-methyl-1H-pyrazol-3-yl)-6-(4-methylpiperazin-1-yl)pyrimidin-4-amine], the pIC50 in test [1] (40 minutes at room temperature) and in test [2] (40 minutes at room temperature) was not below 7.00 in each case. Besides, in the test with HCT116 cells, the GI50 is not above 1000 nM.

As for `Cc1cc(Nc2cc(NC3CCOCC3)nc(-c3cc4ccccc4n3C)n2)n[nH]1` [Compound 7, N^4-(tetrahydro-2H-pyran-4-yl)-2-(1-methyl-1H-indol-2-yl)-N^6-(5-methyl-1H-pyrazol-3-yl)pyrimidine-4,6-diamine], the pIC50 in test [1] (setting [3]) was not below 6.00; in test [2] (setting [3]), not below 6.00; in the test with HCT116 cells it was 5.00 to 6.00.

With `Cc1ccc(F)c(-c2nc(Nc3cc(C)[nH]n3)cc(N3CCN(C)CC3)n2)c1` [Example 193, 2-(2-fluoro-5-methylphenyl)-N-(5-methyl-1H-pyrazol-3-yl)-6-(4-methylpiperazin-1-yl)pyrimidin-4-amine], the pIC50 in test [1] (40 minutes at room temperature) was not below 7.00; in test [2] (40 minutes at room temperature), not below 7.00; with HCT116 cells it was 5.00 to 6.00.

For `Cc1cc(Nc2cc(N3CCN(C)CC3)nc(-c3cccc4ccccc34)n2)n[nH]1` [Example 134, N-(5-methyl-1H-pyrazol-3-yl)-6-(4-methylpiperazin-1-yl)-2-(naphthalen-1-yl)pyrimidin-4-amine], the negative-log IC50 (pIC50) in test [1] (40 minutes at room temperature) was not below 7.00; in test [2] (40 minutes at room temperature), not below 7.00; with HCT116 cells, 5.00 to 6.00.

`Cc1cccc(-c2nc(Nc3cc(C)[nH]n3)cc(N3CCN(C)CC3)n2)c1` [Compound 39, N-(5-methyl-1H-pyrazol-3-yl)-6-(4-methylpiperazin-1-yl)-2-m-tolylpyrimidin-4-amine]: the pIC50 in test [1] (40 minutes at room temperature) and in test [2] (40 minutes at room temperature) was not below 7.00 in each case. Also, in the test with HCT116 cells, the GI50 was not above 1000 nM.

In the case of `COc1cc(OC)cc(-c2nc(Nc3cc(C)[nH]n3)cc(N3CCN(C)CC3)n2)c1` [Example 191, 2-(3,5-dimethoxyphenyl)-N-(5-methyl-1H-pyrazol-3-yl)-6-(4-methylpiperazin-1-yl)pyrimidin-4-amine], the pIC50 in test [1] (40 minutes at room temperature) and in test [2] (40 minutes at room temperature) was not below 7.00 in each case. Also, the GI50 in the test with HCT116 cells is not above 1000 nM.

As for `Cc1cc(Nc2cc(N3CCN(C)CC3)nc(-c3ccco3)n2)n[nH]1` [Compound 14, 2-(furan-2-yl)-N-(5-methyl-1H-pyrazol-3-yl)-6-(4-methylpiperazin-1-yl)-pyrimidin-4-amine], the negative-log IC50 (pIC50) in test [1] (setting [3]) is not below 6.00; in test [2] (setting [3]), not below 6.00; in the test with HCT116 cells it was 5.00 to 6.00.

For the compound `Cc1cc(Nc2cc(N3CCN(C)CC3)nc(-c3ccc(C#N)cc3)n2)n[nH]1` [Example 160, 4-(4-(5-methyl-1H-pyrazol-3-ylamino)-6-(4-methylpiperazin-1-yl)pyrimidin-2-yl)benzonitrile], the pIC50 is not below 6.00 in test [1] (setting [3]) and not below 7.00 in test [2] (40 minutes at room temperature). Besides, the GI50 with HCT116 cells is not above 1000 nM.

Turning to `Cc1cc(Nc2cc(NCCN3CCOCC3)nc(-c3cc4ccccc4n3C)n2)n[nH]1` [Compound 5, 2-(1-methyl-1H-indol-2-yl)-N^4-(5-methyl-1H-pyrazol-3-yl)-N^6-(2-morpholinoethyl)pyrimidine-4,6-diamine], the negative-log IC50 (pIC50) was not below 6.00 in test [1] (setting [3]), not below 7.00 in test [2] (40 minutes at room temperature) and 5.00 to 6.00 in the test with HCT116 cells.

`CCc1ccccc1-c1nc(Nc2cc(C)[nH]n2)cc(NC2CCOCC2)n1` [Example 174, 2-(2-ethylphenyl)-N^4-(5-methyl-1H-pyrazol-3-yl)-N^6-(tetrahydro-2H-pyran-4-yl)pyrimidine-4,6-diamine]: the pIC50 in test [1] (setting [3]) was not below 6.00; in test [2] (setting [3]), not below 6.00; with HCT116 cells, 5.00 to 6.00.

Take `Cc1cc(Nc2cc(N3CCN(C)CC3)nc(-c3cc4ccccc4n3C)n2)n[nH]1` [Compound 2, 2-(1-methyl-1H-indol-2-yl)-N-(5-methyl-1H-pyrazol-3-yl)-6-(4-methylpiperazin-1-yl)pyrimidin-4-amine]: the pIC50 in test [1] (40 minutes at room temperature) and in test [2] (40 minutes at room temperature) was not below 7.00 in each case. In addition, the GI50 with HCT116 cells was not above 1000 nM.

Consider `Cc1cc(Nc2cc(NC3CCOCC3)nc(-c3cc4ccccc4o3)n2)n[nH]1` [Compound 15, 2-(benzofuran-2-yl)-N^4-(tetrahydro-2H-pyran-4-yl)-N^6-(5-methyl-1H-pyrazol-3-yl)-pyrimidine-4,6-diamine], for which the pIC50 in test [1] (40 minutes at room temperature) and in test [2] (40 minutes at room temperature) was not below 7.00 in each case. The GI50 in the test with HCT116 cells is not above 1000 nM.

Take `CC(=O)N1CCN(c2cc(Nc3cc(C)[nH]n3)nc(-c3cc4ccccc4n3C)n2)CC1` [Compound 6, 1-(4-(6-(5-methyl-1H-pyrazol-3-ylamino)-2-(1-methyl-1H-indol-2-yl)pyrimidin-4-yl)-piperazin-1-yl)ethanone]: the pIC50 in test [1] (40 minutes at room temperature) and in test [2] (40 minutes at room temperature) was not below 7.00 throughout. Besides, the GI50 in the test with HCT116 cells was not above 1000 nM.

As to `COCCN(C)c1cc(Nc2cc(C)[nH]n2)nc(-c2ccc3c(c2)OCO3)n1` [Example 153, 2-(benzo[d][1,3]dioxol-5-yl)-N^4-(2-methoxyethyl)-N^4-methyl-N^6-(5-methyl-1H-pyrazol-3-yl)pyrimidine-4,6-diamine], the negative-log IC50 (pIC50) was not below 6.00 in test [1] (setting [3]), not below 6.00 in test [2] (setting [3]) and 5.00 to 6.00 in the test on HCT116 cells.

In the case of `COCCN(C)c1cc(Nc2cc(C)[nH]n2)nc(-c2cccc(Cl)c2)n1` [Compound 62, 2-(3-chlorophenyl)-N^4-(2-methoxyethyl)-N^4-methyl-N^6-(5-methyl-1H-pyrazol-3-yl)pyrimidine-4,6-diamine], the pIC50 in test [1] (setting [3]) was not below 6.00; in test [2] (setting [3]) it was not below 6.00; with HCT116 cells it was 5.00 to 6.00.

On to `Cc1cc(Nc2cc(N3CCN(C)CC3)nc(-c3ccc(F)cc3)n2)n[nH]1` [Compound 32, 2-(4-fluorophenyl)-N-(5-methyl-1H-pyrazol-3-yl)-6-(4-methylpiperazin-1-yl)pyrimidin-4-amine], for which the pIC50 in test [1] (setting [3]) was not below 6.00; in test [2] (40 minutes at room temperature), not below 7.00. Also, the 50% growth inhibitory concentration (GI50) in the test with HCT116 cells was not above 1000 nM.

In the case of `Cc1cc(Nc2cc(NC3CCOCC3)nc(-c3cccc4ccoc34)n2)n[nH]1` [Example 204, 2-(benzofuran-7-yl)-N^4-(5-methyl-1H-pyrazol-3-yl)-N^6-(tetrahydro-2H-pyran-4-yl)pyrimidine-4,6-diamine], the pIC50 in test [1] (setting [3]) was not below 6.00; in test [2] (setting [3]) it was not below 6.00; in the test on HCT116 cells, 5.00 to 6.00.

As to `Cc1cc(Nc2cc(NC3CCOCC3)nc(-c3cccc(N(C)C)c3)n2)n[nH]1` [Compound 74, 2-(3-(dimethylamino)phenyl)-N^4-(5-methyl-1H-pyrazol-3-yl)-N^6-(tetrahydro-2H-pyran-4-yl)pyrimidine-4,6-diamine], the pIC50 in test [1] (40 minutes at room temperature) and in test [2] (40 minutes at room temperature) was not below 7.00 throughout. In the test on HCT116 cells, the GI50 was not above 1000 nM.

As for `Cc1cc(Nc2cc(N3CCN(C)CC3)nc(-c3cccc(-c4ccccc4)c3)n2)n[nH]1` [Compound 16, 2-(biphenyl-3-yl)-N-(5-methyl-1H-pyrazol-3-yl)-6-(4-methylpiperazin-1-yl)pyrimidin-4-amine], the pIC50 in test [1] (40 minutes at room temperature) and in test [2] (40 minutes at room temperature) was not below 7.00 each time. Further, in the test with HCT116 cells, the GI50 is not above 1000 nM.

For `COCCN(C)c1cc(Nc2cc(C)[nH]n2)nc(-c2ccccc2)n1` [Example 171, N^4-(2-methoxyethyl)-N^4-methyl-N^6-(5-methyl-1H-pyrazol-3-yl)-2-phenyl pyrimidine-4,6-diamine], the pIC50 in test [1] (40 minutes at room temperature) was not below 7.00; in test [2] (setting [3]) it was not below 6.00; with HCT116 cells, 5.00 to 6.00.
